Laboratory results reported in PMC12216609, “Inhibitors of eIF1A-ribosome interaction unveil uORF-dependent regulation of translation initiation and antitumor and antiviral effects” (The EMBO Journal, 2025).
Where “and” joins values, the source holds several entries; their conditions need not be identical. Equal values may be shown once. Read-outs that look alike come from different tables or passages of the source.

What was measured:
[1] = biological target: T1, eIF1A-RPS10 interaction (Homo sapiens, UniProt P46783+P47813); experiment: Split-Renilla luciferase eIF1A-RPS10 interaction screen, dose-response; assay type: biochemical; conditions: summary table; read-out: IC50 concentration (µM), IC50 screen
T1 construct: made in house; host or cells: E. coli BL21 (PRSFduet); unpurified lysate supernatant
T1 sequence (P47813 whole entry, one chain of several): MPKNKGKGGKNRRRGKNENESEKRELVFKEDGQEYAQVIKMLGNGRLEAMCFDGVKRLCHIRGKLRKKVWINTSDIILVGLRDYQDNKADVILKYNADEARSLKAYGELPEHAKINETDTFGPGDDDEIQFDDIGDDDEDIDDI
Experimental: While knockdown (KD) studies of eIF1A provided valuable insights into its role in mammalian cell translation (Sehrawat et al, [2019]), this approach presents several limitations. First, it fails to elucidate the functional significance of the opposing functions of eIF1A N- and C-terminal tails with respect to scanning and start codon fidelity. Second, the extended duration required for achieving efficient knockdown, 48–72 h, impairs our ability to differentiate between direct and indirect effects. To overcome these constraints, we set out to develop small-molecule inhibitors targeting eIF1A. Guided by structural and biochemical studies showing eIF1A binding to the small ribosomal subunit at the A-site and interacting directly with RPS10 through its N-terminal tail (Haimov et al, [2017]; Passmore et al, [2007]; Sehrawat et al, [2019]), our approach focused on disrupting the interaction between eIF1A and RPS10. […] The interaction between eIF1A and RPS10 brings the two parts together, leading to the reconstitution of the enzymatic activity (Haimov et al, [2017]). In this system, the spatial arrangement of the two RL parts is critical for the enzymatic activity, making it sensitive not only to direct interference with the interacting proteins but also to changes in the conformation of the fused proteins. In the eIF1A-RPS10 split-RL pair, the C-terminus of eIF1A is fused to N-RL (Fig. 1A), in order to maintain the NTT accessible to RPS10 binding. This pair was cloned and expressed in bacteria as recombinant proteins and used to screen a library of ~50,000 small molecules from diverse sources (Ashkenazi et al, [2017]).
eIF1A-ΔC-Renilla and RPS10-ΔN-Renilla were transformed into BL21 E. coli by heat shock transformation. A bacterial starter of 5 ml LB was incubated overnight at 37 °C and transferred into 1 L LB for incubation at 37 °C until OD ~ 0.5–0.7. Next, protein expression was induced with 0.5 mM IPTG, and bacterial cells were incubated overnight at 16 °C. Bacterial cell pellet was collected after centrifugation (3000 RPM, 15 min), resuspended in 20 ml TKE buffer (Tris 10 mM, KCl 100 mM, EDTA 0.1 mM), sonicated (bath sonicator, 24 cycles of 30 s) and centrifuged again (15000 RPM, 30 min). Supernatants were collected, analyzed for RL activity, and then used for high throughput drug screen (HTS) at the Weizmann G-INCPM HTS unit as described (Ashkenazi et al, [2017]). In addition to the standard controls of this protocol, the two parts of the split RL, without eIF1A or RPS10, were tested as controls. Selected compounds were purchased from Sigma-Aldrich and Enamine. Compound powders were resuspended in DMSO for a final concentration of 10 mM and stored at −20 °C.

[2] = biological target: T2, eIF1A without NTT (Homo sapiens, UniProt P47813); experiment: Fluorescence binding assay with NTT-truncated eIF1A; conditions: for fluorescence ratio, eIF1A Δ NTT: background-corrected, relative to DMSO or lowest 1Ai concentration, replicate columns
T2 construct: His-bdSUMO (cleaved yes); made in house; host or cells: E. coli (BL-21)
T2 sequence (P47813 31-144 limits assumed): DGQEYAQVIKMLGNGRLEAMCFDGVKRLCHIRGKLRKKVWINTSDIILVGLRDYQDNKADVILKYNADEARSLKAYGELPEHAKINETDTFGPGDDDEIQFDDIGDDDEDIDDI

[3] = biological target: T3, eIF1A without CTT (Homo sapiens, UniProt P47813); assay type: binding; conditions: for fluorescence ratio, eIF1A Δ CTT: background-corrected, relative to DMSO or lowest 1Ai concentration, replicate columns
T3 construct: His-bdSUMO (cleaved yes); made in house; host or cells: E. coli (BL-21)
T3 sequence (P47813 1-114 limits assumed): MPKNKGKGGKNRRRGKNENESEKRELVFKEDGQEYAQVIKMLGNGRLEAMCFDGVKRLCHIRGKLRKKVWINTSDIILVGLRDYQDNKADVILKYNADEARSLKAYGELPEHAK

[4] = system: uORF-bearing 5'UTR firefly reporters in HEK293T cells; experiment: uORF reinitiation / leaky scanning firefly reporters; conditions: for ff/rl, 46 leaky reporter / ff/rl, 46 reporter / ff/rl, normal reporter: single replicates, not normalized to DMSO
Description: (M) The reference and uORF-bearing reporters were transfected to HEK293T cells together with RL, which served to normalize translation efficiency. The reporter activities are represented as firefly vs RL; n ≥3 independent biological replicates, error bars represent SEM. *P < 0.05, **P < 0.01, Student t test. (N) Firefly Reporters (J) were transfected to HEK293T cells together with normalizing RL. […] Results are represented as firefly vs. RL normalized to DMSO in each biological replicate; n = 4, error bars represent SEM. *P < 0.05, **P < 0.01, Student t test.
In the first and second, we inserted an out-of-frame uAUG 46 or 95 nucleotides before the main ORF, respectively, followed by a downstream stop codon generating an uORF of 10 amino acids. In these constructs, the translation from the main ORF could be either by reinitiation or leaky scanning. In the third construct, this out of frame uAUG lacks a stop codon, causing initiation from the main ORF to exclusively occur via leaky scanning (Fig. 4L). These reporters were transfected into HEK293T cells together with RL luciferase reporter for normalizing transfection efficiency. […] We next examined these reporters in the presence of 1Ais.

**Q.** What does the source list for `CCOc1cc(C(=O)Nc2ccc(Cl)c(-c3nc4ccccc4[nH]3)c2)cc(OCC)c1OCC` [1Ai-5677]?
**A.** IC50 [1]: 15 µM; binding to NTT-truncated eIF1A [2]: significantly decreased; fluorescence ratio, eIF1A Δ NTT ([2]; 1Ai conc. 0.25 uM): 1; fluorescence ratio, eIF1A Δ NTT ([2]; 1Ai conc. 0.5 uM): 1 and 0.9156; fluorescence ratio, eIF1A Δ NTT ([2]; 1Ai conc. 1 uM): 1.054 and 0.8819; fluorescence ratio, eIF1A Δ NTT ([2]; 1Ai conc. 2 uM): 0.997 and 1.025; fluorescence ratio, eIF1A Δ NTT ([2]; 1Ai conc. 4 uM): 0.8973 and 1.017; fluorescence ratio, eIF1A Δ NTT ([2]; 1Ai conc. 8 uM): 0.994 and 0.865; fluorescence ratio, eIF1A Δ NTT ([2]; 1Ai conc. 16 uM): 1.091 and 0.9072; fluorescence ratio, eIF1A Δ NTT ([2]; 1Ai conc. 32 uM): 1.205 and 0.9494; fluorescence ratio, eIF1A Δ NTT ([2]; 1Ai conc. 64 uM): 1.39 and 0.8945; fluorescence ratio, eIF1A Δ NTT ([2]; 1Ai conc. 256 uM): 1.882 and 1.228; IC50 ([2]; eIF1A Δ NTT, from the titration data, read-out: IC50 (eIF1A Δ NTT titration block)): 109 µM; IC50 ([2]; summary table, fluorescence binding assay, read-out: IC50 concentration (µM), NTT truncation): 109 µM; fluorescence ratio, eIF1A Δ CTT ([3]; 1Ai conc. 0.25 uM): 0.9518 and 1.125; fluorescence ratio, eIF1A Δ CTT ([3]; 1Ai conc. 0.5 uM): 0.9965 and 1.042; fluorescence ratio, eIF1A Δ CTT ([3]; 1Ai conc. 1 uM): 1.031 and 1.16; fluorescence ratio, eIF1A Δ CTT ([3]; 1Ai conc. 2 uM): 1.066 and 1.079; fluorescence ratio, eIF1A Δ CTT ([3]; 1Ai conc. 4 uM): 1.073 and 1.131; fluorescence ratio, eIF1A Δ CTT ([3]; 1Ai conc. 8 uM): 1.007 and 1.089; fluorescence ratio, eIF1A Δ CTT ([3]; 1Ai conc. 16 uM): 1.119 and 1.152; fluorescence ratio, eIF1A Δ CTT ([3]; 1Ai conc. 32 uM): 1.196 and 1.27; fluorescence ratio, eIF1A Δ CTT ([3]; 1Ai conc. 64 uM): 1.276 and 1.31; fluorescence ratio, eIF1A Δ CTT ([3]; 1Ai conc. 256 uM): 1.365 and 1.556; IC50 ([3]; eIF1A Δ CTT, from the titration data, read-out: IC50 (eIF1A Δ CTT titration block)): 79.9 µM; IC50 ([3]; summary table, fluorescence binding assay, read-out: IC50 concentration (µM), CTT truncation): 79.9 µM

**Q.** `COc1ccc(C=C2CSc3ccc(Cl)cc3C2=O)cc1O` [1Ai-5175] was tested. Which IC50 [1] did it give?
**A.** Its IC50 is 16 µM.

**Q.** What about the “binding to NTT-truncated eIF1A” value [2] of the same compound?
**A.** Its value is “no binding”.

**Q.** What about the “NTT truncation IC50” value ([2]; eIF1A without NTT) of the same compound?
**A.** Its value is “No binding”.

**Q.** What about the “IC50 concentration (µM), NTT truncation” value ([2]; summary table, fluorescence binding assay) of the same compound?
**A.** Its value is “No binding”.

**Q.** What about the “effect on uORF / leaky scanning reporters” value ([4]; 20uM (1Ai-5175 at 5uM), overnight) of the same compound?
**A.** Its value is “inhibit the short-distance reinitiation”.

**Q.** What about the “normalized to DMSO, 46 leaky, average” value ([4]; 46 leaky reporter, average of biological repeats) of the same compound?
**A.** Its value is 0.842.

**Q.** And the “normalized to DMSO, 46 leaky, biological repeats” value ([4]; 46 leaky reporter, biological repeats 1-4)?
**A.** Its value is 0.696 and 0.690 and 0.975 and 1.007.

**Q.** And the “normalized to DMSO, 46 leaky” value ([4]; 46 leaky reporter, single replicates 1-8 (two dates))?
**A.** The value was 0.670 and 0.722 and 0.651 and 0.728 and 1.015 and 0.935 and 0.924 and 1.090.

**Q.** What about the “normalized to DMSO, -46, average” value ([4]; -46 reporter, average of biological repeats) of the same compound?
**A.** The value was 0.583.

**Q.** And the “normalized to DMSO, -46, biological repeats” value ([4]; -46 reporter, biological repeats 1-4)?
**A.** The value was 0.455 and 0.565 and 0.613 and 0.698.

**Q.** And the “normalized to DMSO, -46” value ([4]; -46 reporter, single replicates 1-8 (two dates))?
**A.** Its value is 0.448 and 0.461 and 0.490 and 0.641 and 0.602 and 0.625 and 0.452 and 0.944.

**Q.** And the “ff/rl, 46 leaky reporter” value ([4]; experiment 12.3.24)?
**A.** Its value is 2.64E-02 and 2.84E-02 and 2.56E-02 and 2.87E-02.

**Q.** What about the “ff/rl, 46 reporter” value ([4]; experiment 12.3.24) of the same compound?
**A.** Its value is 9.52E-02 and 9.80E-02 and 1.04E-01 and 1.36E-01.

**Q.** What about the “ff/rl, normal reporter” value ([4]; experiment 12.3.24) of the same compound?
**A.** The value was 3.34E-01 and 1.68E-01 and 2.05E-01 and 1.98E-01.

**Q.** And the “ff/rl, 46 leaky reporter” value ([4]; experiment 13.03.24)?
**A.** The value was 4.57E-03 and 4.21E-03 and 4.16E-03 and 4.91E-03.

**Q.** What about the “ff/rl, 46 reporter” value ([4]; experiment 13.03.24) of the same compound?
**A.** Its value is 1.39E-02 and 1.45E-02 and 1.05E-02 and 2.19E-02.

**Q.** What about the “ff/rl, normal reporter” value ([4]; experiment 13.03.24) of the same compound?
**A.** Its value is 4.32E-02 and 3.04E-02 and 3.07E-02 and 3.75E-02.

**Q.** And the “reporter activity norm to DMSO, minus46” value ([4]; minus46 reporter, 95nt from uORF to main ORF experiment, Figure 4N source data, replicate experiments, DMSO = 1)?
**A.** Its value is 0.1896 and 0.185.

**Q.** What about the “95nt from uORF to main ORF experiment, minus46, average (DMSO = 1)” value ([4]; minus46 reporter, average) of the same compound?
**A.** The value was 0.497.

**Q.** What about the “reporter activity norm to DMSO, minus 95” value ([4]; minus 95 (nt) reporter, 95nt from uORF to main ORF experiment, Figure 4N source data, replicate experiments, DMSO = 1) of the same compound?
**A.** Its value is 0.3264 and 0.388.

**Q.** What about the “95nt from uORF to main ORF experiment, minus 95nt, average (DMSO = 1)” value ([4]; minus 95nt reporter, average) of the same compound?
**A.** Its value is 0.9478.

**Q.** And the “reporter activity norm to DMSO, ref” value ([4]; ref reporter, 95nt from uORF to main ORF experiment, Figure 4N source data, replicate experiments, DMSO = 1)?
**A.** Its value is 0.381 and 0.3727.

**Q.** What about the “95nt from uORF to main ORF experiment, ref, average (DMSO = 1)” value ([4]; ref reporter, average) of the same compound?
**A.** Its value is 0.3768.

**Q.** And the “normalized to DMSO, refference, average” value ([4]; refference reporter, average of biological repeats)?
**A.** Its value is 0.842.

**Q.** What about the “normalized to DMSO, refference, biological repeats” value ([4]; refference reporter, biological repeats 1-4) of the same compound?
**A.** Its value is 0.886 and 0.712 and 0.917 and 0.851.

**Q.** What about the “normalized to DMSO, refference” value ([4]; refference reporter, single replicates 1-8 (two dates)) of the same compound?
**A.** Its value is 1.178 and 0.594 and 0.724 and 0.700 and 1.078 and 0.757 and 0.766 and 0.936.

**Q.** And the “normalized to DMSO, single replicates” value ([4]; reporter 46, experiment 12.3.24)?
**A.** Its value is 4.48E-01 and 4.61E-01 and 4.90E-01 and 6.41E-01.

**Q.** And the “normalize to DMSO, average” value ([4]; reporter 46, experiment 12.3.24, DMSO = 1)?
**A.** The value was 0.51.

**Q.** What about the “normalized to DMSO, single replicates” value ([4]; reporter 46, experiment 13.3.24) of the same compound?
**A.** Its value is 6.02E-01 and 6.25E-01 and 4.52E-01 and 9.44E-01.

**Q.** What about the “normalize to DMSO, average” value ([4]; reporter 46, experiment 13.3.24, DMSO = 1) of the same compound?
**A.** Its value is 0.6556.

**Q.** What about the “normalize to DMSO, average” value ([4]; reporter 46 leaky, experiment 12.3.24, DMSO = 1) of the same compound?
**A.** The value was 0.6928.

**Q.** What about the “normalized to DMSO, single replicates” value ([4]; reporter 46 leaky, experiment 13.3.24) of the same compound?
**A.** The value was 1.01E+00 and 9.35E-01 and 9.24E-01 and 1.09E+00.

**Q.** And the “normalize to DMSO, average” value ([4]; reporter 46 leaky, experiment 13.3.24, DMSO = 1)?
**A.** The value was 0.991.

**Q.** What about the “normalized to DMSO, single replicates” value ([4]; reporter normal (refference), experiment 12.3.24) of the same compound?
**A.** Its value is 1.18E+00 and 5.94E-01 and 7.24E-01 and 7.00E-01.

**Q.** And the “normalized to DMSO, single replicates” value ([4]; reporter normal (refference), experiment 13.3.24)?
**A.** Its value is 1.08E+00 and 7.57E-01 and 7.66E-01 and 9.36E-01.

**Q.** What about the “normalize to DMSO, average” value ([4]; reporter refference, experiment 12.3.24, DMSO = 1) of the same compound?
**A.** The value was 0.7988.

**Q.** And the “normalize to DMSO, average” value ([4]; reporter refference, experiment 13.3.24, DMSO = 1)?
**A.** The value was 0.8842.

**Q.** And the “inhibitory effect with extended (long) reinitiation distance” value ([4]; uORF to main ORF distance extended by 49 nt)?
**A.** Its value is “lost”.
